# Measured values taken from patent publication US20260014147A1, “STAT6 DEGRADERS” (Gilead Sciences, Inc., priority 2024, published 2026).
# Molecular target: T1, STAT6 (endogenous, HiBiT-tagged) in HeLa LgBiT clone 4.14 cells (Homo sapiens, UniProt P42226)
# T1 construct: These cells express endogenous STAT6; host or cells: HeLa LgBiT clone 4.14
# T1 sequence (P42226 1-847): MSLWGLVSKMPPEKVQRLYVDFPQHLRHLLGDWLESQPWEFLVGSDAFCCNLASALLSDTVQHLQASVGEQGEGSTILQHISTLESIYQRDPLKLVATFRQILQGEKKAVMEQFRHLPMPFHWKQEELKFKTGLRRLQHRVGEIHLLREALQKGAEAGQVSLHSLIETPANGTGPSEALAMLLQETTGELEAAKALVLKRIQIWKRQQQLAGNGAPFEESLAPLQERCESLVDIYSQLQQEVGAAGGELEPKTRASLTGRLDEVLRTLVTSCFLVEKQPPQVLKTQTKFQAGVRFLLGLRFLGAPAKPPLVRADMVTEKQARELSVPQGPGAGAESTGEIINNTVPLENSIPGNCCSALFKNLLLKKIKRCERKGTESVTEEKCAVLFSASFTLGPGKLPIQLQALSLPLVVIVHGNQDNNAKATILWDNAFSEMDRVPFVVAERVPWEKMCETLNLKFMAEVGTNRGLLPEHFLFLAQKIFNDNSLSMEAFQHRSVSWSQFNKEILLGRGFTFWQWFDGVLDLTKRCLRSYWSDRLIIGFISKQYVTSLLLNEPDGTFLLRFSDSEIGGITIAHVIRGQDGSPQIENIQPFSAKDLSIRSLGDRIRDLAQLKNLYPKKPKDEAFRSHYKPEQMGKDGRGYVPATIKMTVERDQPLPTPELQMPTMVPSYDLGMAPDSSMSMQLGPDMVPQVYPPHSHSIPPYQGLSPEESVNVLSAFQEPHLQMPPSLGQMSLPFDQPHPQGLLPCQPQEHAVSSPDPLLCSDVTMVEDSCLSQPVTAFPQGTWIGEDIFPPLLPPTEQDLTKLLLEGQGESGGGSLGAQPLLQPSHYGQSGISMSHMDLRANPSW
# Assay: STAT6 Degrader Assay (HiBiT based, HeLa LgBiT clone 4.14 cells, luminescence, DC50)
# Assay type: cell-based
# Settings: DC50 provided for test compounds with >80% Emax, geometric mean, read-out: STAT6 degradation DC50
# In short: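 HeLa LgBiT clone 4.14 cells carry CRISPR-inserted HiBiT on endogenous STAT6; 5000 cells/well were exposed to compound for 4-24 h at 37 °C, 5% CO2. Nano-Glo substrate added for 0.5 h; luminescence reflects remaining STAT6, with terfenadine ([…]) wells defining 100% degradation.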
row,DC50,SMILES
1,36.9 nM,"Cn1c(CN2CCC(c3ccc(C(=O)N4CCC(CN5CCC(N6CCN(c7ccc(NC8CCC(=O)NC8=O)cc7F)CC6)C(F)(F)C5)CC4)cc3)CC2)cc2c(-c3ccc4[nH]ncc4c3)ccnc21 (stereo not drawn) [Example 2p1, 3-((4-(4-(1-((1-(4-(1-((4-(1H-indazol-5-yl)-1-methyl-1H-pyrrolo[2,3-b]pyridin-2-yl)methyl)-piperidin-4-yl)benzoyl)piperidin-4-yl)methyl)-3,3-difluoropiperidin-4-yl)piperazin-1-yl)-3-fluorophenyl)-amino)piperidine-2,6-dione]"
2,61 nM,"Cn1c(CN2CCC(c3ccc(C(=O)N4CCC(CN5CCC(N6CCN(c7ccc(NC8CCC(=O)NC8=O)cc7F)CC6)C(F)(F)C5)CC4)cc3)CC2)cc2c(-c3ccc(N)nc3)ccnc21 (stereo not drawn) [Example 2p2, 3-((4-(4-(1-((1-(4-(1-((4-(6-aminopyridin-3-yl)-1-methyl-1H-pyrrolo[2,3-b]pyridin-2-yl)-methyl)piperidin-4-yl)benzoyl)piperidin-4-yl)methyl)-3,3-difluoropiperidin-4-yl)piperazin-1-yl)-3-fluorophenyl)amino)piperidine-2,6-dione]"
3,20.6 nM,"COCc1nc2cc(-c3ccnc4c3cc(CN3CCC(c5ccc(C(=O)N6CCC(CN7CCC(N8CCN(c9ccc(NC%10CCC(=O)NC%10=O)cc9F)CC8)C(F)(F)C7)CC6)cc5)CC3)n4C)ccc2[nH]1 (stereo not drawn) [Example 2p3, 3-((4-(4-(3,3-difluoro-1-((1-(4-(1-((4-(2-(methoxymethyl)-1H-benzo[d]imidazol-5-yl)-1-methyl-1H-pyrrolo[2,3-b]pyridin-2-yl)methyl)piperidin-4-yl)benzoyl)piperidin-4-yl)methyl)piperidin-4-yl)piperazin-1-yl)-3-fluorophenyl)amino)piperidine-2,6-dione]"
4,12.9 nM,"COCc1nc2cc(-c3ccnc4c3cc(CN3CCC(c5ccc(C(=O)N6CCn7nc(CN8CCC(c9ccc(NC%10CCC(=O)NC%10=O)cc9F)C(F)(F)C8)cc7C6)cc5)CC3)n4C)ccc2[nH]1 (stereo not drawn) [Example 2q12, 3-((4-(3,3-difluoro-1-((5-(4-(1-((4-(2-(methoxymethyl)-1H-benzo[d]imidazol-5-yl)-1-methyl-1H-pyrrolo[2,3-b]pyridin-2-yl)methyl)piperidin-4-yl)benzoyl)-4,5,6,7-tetrahydropyrazolo[1,5-a]pyrazin-2-yl)methyl)piperidin-4-yl)-3-fluorophenyl)amino)piperidine-2,6-dione]"
5,0.35 nM,"Cn1c(CN2CCC(c3ccc(-c4nnc5ccc(N6CCC(CN7CCN(c8ccc(NC9CCC(=O)NC9=O)cc8F)CC7)CC6)nn45)cc3)CC2)cc2c(-c3ccc(N)nc3)ccnc21 (stereo not drawn) [Example 2r1, 3-((4-(4-((1-(3-(4-(1-((4-(6-aminopyridin-3-yl)-1-methyl-1H-pyrrolo[2,3-b]pyridin-2-yl)methyl)-piperidin-4-yl)phenyl)-[1,2,4]triazolo[4,3-b]pyridazin-6-yl)piperidin-4-yl)methyl)piperazin-1-yl)-3-fluorophenyl)-amino)piperidine-2,6-dione]"

# Same assay, conditions: Emax provided for test compounds with <80% Emax (and 2c15), geometric mean, read-out: STAT6 degradation Emax
row,SMILES,Emax
1,"Cn1c(CN2CCC(c3ccc(C(=O)N4CCn5c(CN6CCC(c7ccc(NC8CCC(=O)NC8=O)cc7F)CC6)nnc5C4)cc3)CC2)cc2c(-c3ccc(N)nc3)ccnc21 (stereo not drawn) [Example 2q1, 3-((4-(1-((7-(4-(1-((4-(6-aminopyridin-3-yl)-1-methyl-1H-pyrrolo[2,3-b]pyridin-2-yl)methyl)piperidin-4-yl)benzoyl)-5,6,7,8-tetrahydro-[1,2,4]triazolo[4,3-a]pyrazin-3-yl)methyl)piperidin-4-yl)-3-fluorophenyl)amino)piperidine-2,6-dione]",40 to 50%
2,"Cn1c(CN2CCC(c3ccc(C(=O)N4CCn5c(CN6CCC(c7ccc(NC8CCC(=O)NC8=O)cc7F)CC6)nnc5C4)cc3)CC2)cc2c(-c3ccc4[nH]ncc4c3)ccnc21 (stereo not drawn) [Example 2q2, 3-((4-(1-((7-(4-(1-((4-(1H-indazol-5-yl)-1-methyl-1H-pyrrolo[2,3-b]pyridin-2-yl)methyl)-piperidin-4-yl)benzoyl)-5,6,7,8-tetrahydro-[1,2,4]triazolo[4,3-a]pyrazin-3-yl)methyl)piperidin-4-yl)-3-fluorophenyl)amino)piperidine-2,6-dione]",70 to 80%
3,"Cn1c(CN2CCC(c3ccc(C(=O)N4CCC(CN5CCN(Cc6ccc(NC7CCC(=O)NC7=O)cc6)CC5)CC4)cc3)CC2)cc2c(-c3ccc4[nH]ncc4c3)ccnc21 (stereo not drawn) [Example 2s1, 3-((4-((4-((1-(4-(1-((4-(1H-indazol-5-yl)-1-methyl-1H-pyrrolo[2,3-b]pyridin-2-yl)methyl)-piperidin-4-yl)benzoyl)piperidin-4-yl)methyl)piperazin-1-yl)methyl)phenyl)amino)piperidine-2,6-dione]",60 to 70%
4,"Cn1c(CN2CCC(c3ccc(C(=O)N4CCC(CN5CCN(C(=O)c6ccccc6NC6CCC(=O)NC6=O)CC5)CC4)cc3)CC2)cc2c(-c3ccc4[nH]ncc4c3)ccnc21 (stereo not drawn) [Example 2t2, 3-((2-(4-((1-(4-(1-((4-(1H-indazol-5-yl)-1-methyl-1H-pyrrolo[2,3-b]pyridin-2-yl)methyl)-piperidin-4-yl)benzoyl)piperidin-4-yl)methyl)piperazine-1-carbonyl)phenyl)amino)piperidine-2,6-dione]",< 20%
5,"Cn1c(CN2CCC(c3ccc(C(=O)N4CCC(OCC#Cc5cccc(NC6CCC(=O)NC6=O)c5)CC4)cc3)CC2)cc2c(-c3ccc4[nH]ncc4c3)ccnc21 (stereo not drawn) [Example 2t5, 3-((3-(3-((1-(4-(1-((4-(1H-indazol-5-yl)-1-methyl-1H-pyrrolo[2,3-b]pyridin-2-yl)methyl)-piperidin-4-yl)benzoyl)piperidin-4-yl)oxy)prop-1-yn-1-yl)phenyl)amino)-piperidine-2,6-dione]",30 to 40%

# More lines, now with the values ahead:
row,Emax,SMILES
1,40 to 50%,"Cn1c(CN2CCC(c3ccc(C(=O)N4CCC(CN5CCN(Cc6ccc(NC7CCC(=O)NC7=O)cc6F)CC5)CC4)cc3)CC2)cc2c(-c3ccc(N)nc3)ccnc21 (stereo not drawn) [Example 2s2, 3-((4-((4-((1-(4-(1-((4-(6-aminopyridin-3-yl)-1-methyl-1H-pyrrolo[2,3-b]pyridin-2-yl)methyl)piperidin-4-yl)benzoyl)piperidin-4-yl)methyl)piperazin-1-yl)methyl)-3-fluorophenyl)amino)piperidine-2,6-dione]"
2,40 to 50%,"Cn1c(CN2CCC(c3ccc(C(=O)N4CCC(CN5CCN(c6ccc(NC7CCC(=O)NC7=O)nc6)CC5)CC4)cc3)CC2)cc2c(-c3ccc4[nH]ncc4c3)ccnc21 (stereo not drawn) [Example 2t3, 3-((5-(4-((1-(4-(1-((4-(1H-indazol-5-yl)-1-methyl-1H-pyrrolo[2,3-b]pyridin-2-yl)methyl)piperidin-4-yl)benzoyl)piperidin-4-yl)methyl)piperazin-1-yl)pyridin-2-yl)amino)piperidine-2,6-dione]"
